# According to publication PMC8192908 (Scientific Reports, 2021):
# Values joined by “and” are separate entries in the source; they are usually repeats but may differ in a detail not shown here. Identical values can stand only once. Like-named read-outs stand apart in the source and are kept apart here. Marks after values point to notes of the source that are not given here.
# Experiments:
# [1] = system: spermatozoa from normozoospermic samples; experiment: Sperm DNA integrity by TUNEL assay; settings: 24 h in vitro incubation; PTX 1 mM, PTXm-1 0.25 mM; control 6.5%
# [2] = system: spermatozoa, oocytes and embryos of Swiss albino mice; experiment: In vitro fertilization and pre-implantation embryo development; format: cell-based; settings: for Total cell number (Mean ± SE): blastocysts, PTX 1 mM, PTXm-1 0.25 mM, control 92.78 ± 6.58; for Hatching rate at 120 h post insemination / Blastocyst rate at 120 h post insemination / Fertilization rate at 16 h post insemination: sperm treated with PTX 1 mM or PTXm-1 0.25 mM; for Hatching rate at 120 h post insemination: control 64.56; for Blastocyst rate at 120 h post insemination: control 81.67; for Fertilization rate at 16 h post insemination: control 83.56
# Procedure: The adult female Swiss albino mice were stimulated using 5 IU of pregnant mare serum gonadotropin (PMSG) and 10 IU of human chorionic gonadotropin (hCG) at an interval of 48 h. At 13 h post hCG administration, the cumulus oocyte complexes (COCs) were collected by teasing the oviduct into M2 medium. To assess the effect of PTXm-1 on fertilization outcome and the early embryo development, Swiss albino mice were used. The male mice (6 to 8 weeks, N = 6 per trial, total 3 trials) were humanely sacrificed by cervical dislocation and cauda was dissected out. The IVF was performed as described in our earlier report. Briefly, the cauda was teased in a Petri dish containing EBSS (with 0.1% BSA) culture media and incubated at 37 °C, 5% CO2 incubator. After 2 h of incubation, the spermatozoa were collected and divided equally into 4 parts as C, VC, […] and PTXm-1 groups. The sperm suspension was centrifuged at 250 g for 8 min and the supernatant was discarded. […] The overlay containing motile sperm fraction of were collected carefully without disturbing the pellet, and were used for preparation of insemination droplets (80 µL) which was covered with paraffin oil (Cat. No. 61822605001730, Merck, Germany). The female mice were sacrificed humanely by cervical dislocation (N = 12 per trial, total 3 trials). […] […] Blastocyst rate, hatching rate and, DNA damage and total cell number was assessed in blastocysts.
# PDE10A-PTXm-1 complex = target: T1, PDE10A-PTXm-1 complex (Homo sapiens, UniProt Q9Y233); experiment: Competitive ITC: PTX titrated against PDE10A-PTXm-1 complex; format: binding
# T1 construct: Catalytic domain of each protein was cloned between BamHI and XhoI restriction sites in; 6xHis-SUMO (N, cleaved yes); made in house; host or cells: E. coli Rosetta 2 (DE3)
# [3] = system: intracellular cAMP in spermatozoa; experiment: Intracellular cAMP in spermatozoa; format: cell-based, human; settings: 1 h after incubation; PTX 1 mM, PTXm-1 0.25 mM
# Procedure: Sperm suspension was centrifuged at 800 g for 10 min and supernatant obtained was frozen at − 80 °C until further analysis. The cAMP level was measured using cAMP test kit as explained by the manufacturers (Elabscience®, Cat. No. E-EL-0056) as described in our earlier report. Briefly, 50 μL of cAMP detection standard or test samples were added to each well of the multi well plate, followed by addition of biotinylated detection solution (50 μL). After 45 min of incubation at 37 °C, the solutions from each well were decanted. The wells of the plate were further washed 3 times using wash buffer and then incubated with 100 μL horse radish peroxidase (HRP) conjugate for 30 min at 37 °C. Further, each well of the multi well plate was washed repeatedly (5 times) and then incubated with 90 μL substrate reagent for 15 min at 37 °C. Finally, the reaction was stopped by adding 50 μL of stop solution and, immediately OD450nm of the each well was measured using Skanit software 5.0 (Multiskan, Photometer, Thermoscientific). The assay was performed in duplicates and standard curve was plotted. The concentration of cAMP was extrapolated from the standard curve.
# mouse bone marrow cells = settings: cited from earlier work
# human lymphocytes cells = settings: cited from earlier work
# T1 sequence (Q9Y233 718-1035 limits assumed, one chain of several): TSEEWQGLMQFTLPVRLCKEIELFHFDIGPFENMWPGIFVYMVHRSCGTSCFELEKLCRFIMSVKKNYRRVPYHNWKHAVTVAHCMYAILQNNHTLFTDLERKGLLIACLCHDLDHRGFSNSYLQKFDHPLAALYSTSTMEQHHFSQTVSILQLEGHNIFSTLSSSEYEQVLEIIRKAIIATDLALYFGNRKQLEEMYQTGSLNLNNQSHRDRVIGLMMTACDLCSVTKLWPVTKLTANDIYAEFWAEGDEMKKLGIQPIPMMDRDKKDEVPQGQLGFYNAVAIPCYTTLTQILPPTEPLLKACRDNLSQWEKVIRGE
decrease of the binding affinity of PTX towards PDE10A in presence of PTXm-1 (PDE10A-PTXm-1 complex; PDE10A-PTXm-1 2:1 molar ratio),SMILES,spermatozoa with damaged DNA (TUNEL) [1],Total cell number (Mean ± SE) [2],Hatching rate at 120 h post insemination [2],Blastocyst rate at 120 h post insemination [2],Fertilization rate at 16 h post insemination [2],Kd (PDE10A-PTXm-1 complex; PDE10A-PTXm-1 complex with 2:1 molar ratio),intracellular cAMP level vs control and vehicle control [3],cytotoxic effect on mouse bone marrow cells (mouse bone marrow cells),genotoxic effect on human lymphocytes cells in vitro (human lymphocytes cells),"cytotoxic effect on mouse bone marrow cells (mouse bone marrow cells; mouse, in vivo)"
,"CC(=O)CCCCn1c(=O)c2c(ncn2C)n(C)c1=O [PTX, pentoxifylline]",10.25%,"88.91 ± 6.56^b,c","67.56^a,c %","86.34^a,c %","95.64% and 95.64^b,c %",350 µM,significantly higher,do not have any cytotoxic effect,,
~ eight-fold decrease,COc1ccc2cc(/C=C/C(=O)CCCCn3c(=O)c4c(ncn4C)n(C)c3=O)ccc2c1 [PTXm-1],,93.23 ± 8.56^e,"66.89^b,d %","88.45^b,d %","96.25% and 96.25^b,c %",,significantly higher,,significantly lower genotoxic effect,do not have any cytotoxic effect
